Assay results as given in patent US5103014A, “Certain 3,3'-[[[(2-phenyl-4-thiazolyl)methoxy]phenyl]methylene]dithiobis-propano ic acid derivatives” (American Home Products Corporation, priority 1990, dated 1992).
Read-outs that look alike come from different tables or passages of the source.

Key:
[1] = test system: 5,12-diHETE synthesis by rat glycogen-elicited polymorphonuclear leukocytes; assay: Inhibition of 5,12-diHETE synthesis by rat glycogen-elicited polymorphonuclear leukocytes; assay type: cell-based; settings: Leukocyte, rat PMN
Procedure: This is especially true with respect to 5,12-diHETE, which is also denoted as LTB4 [see Ford-Hitchinson, J. Roy. Soc. Med., 74, 831 (1981)]. The assay of this Example measures the ability of the compounds of the invention to inhibit the synthesis of 5,12-diHETE by rat glycogen-elicited polymorphonuclear leukocytes.
(§1) Peritoneal PMN are obtained from female Wistar rats (150-250 g) that received an i.p. injection of 6% glycogen (10 ml). After 24 hours, rats are killed by CO2 asphyxiation and peritoneal cells are harvested by peritoneal lavage using Ca^++ and Mg^++ free Hanks' balanced salt solution (HBSS). The peritoneal exudate is centrifuged at 400 g for 10 minutes. After centrifugation, the lavaged fluid is removed and the cell pellet is resuspended in HBSS containing Ca^++ and Mg^++ and 10 mM L-cysteine at a concentration of 2×10^7 cells/ml. To 1 ml portions of cell suspension, test drugs or vehicle are added and incubated at 37° C. for 10 minutes. Following this preincubation, the calcium ionophore (10 μM), A23187, is added together with 0.5 μCi [^14 C] arachidonic acid and further incubated for 10 minutes. The reaction is stopped by the addition of ice cold water (3 ml) and acidification to pH 3.5. Lipoxygenase products are then extracted twice into diethyl ether. The pooled ether extracts are evaporated to dryness under nitrogen and the residue is redissolved in a small volume of methanol and spotted on aluminum backed pre-coated thin layer chromatographic plates. The samples are then co-chromatographed with authentic reference 5,12-diHETE in the solvent system-hexane:ether:acetic acid (50:50:3). After chromatography, the areas associated with 5,12-diHETE standard are identified by autoradiography, cut out and quantitated by liquid scintillation.
Results are expressed as the 50% Inhibitory concentration, or as percent inhibition at a given.

[2] = test system: acute inflammatory response (carrageenan paw edema); assay: Rat carrageenan paw edema assay; assay type: in vivo; settings: po, 50 mg/kg peroral, 1 hour prior to carrageenan, edema at 3 hours
Procedure: The compounds of the invention are tested in the rat carrageenan paw edema assay to determine their ability to inhibit the acute inflammatory response. 140-180 gm male Sprague-Dawley rats, in groups of 6 animals, are injected subcutaneously in the right paw with 0.1 ml of 1% carrageenan at zero time. Mercury plethysmographic readings (ml) of the paw are made at zero time and 3 hours later. Test compounds are suspended or dissolved in 0.5% methylcellulose and given perorally 1 hour prior to carrageenan administration. The increase in paw volume (edema in ml.) produced by the carrageenan is measured. […] Unpaired Student's t-test is used to determine statistical significance.

[3] = test system: LTD4 induced bronchoconstriction; assay: In vivo inhibition of LTD4 induced bronchospasm in guinea pigs (exogenously administered leukotrienes); set-up: species or system guinea pig; settings: 10 minutes before induction of bronchospasm (LTD4)
[4] = test system: ovalbumin induced bronchospasm; assay: In vivo inhibition of ovalbumin induced bronchospasm in sensitized guinea pigs (endogenous mediators); set-up: species or system guinea pig; settings: 25 mg/kg, intragastrically, 10 minutes before intravenous ovalbumin challenge
Procedure: The assay of this Example measures the in vivo ability of the compounds of the invention to inhibit the bronchospasm induced in guinea pigs by endogenous mediators of the bronchoconstriction.
Male Hartley strain guinea pigs weighing 250-350 g are sensitized to chicken ovalbumin (OA) (10 mg i.p.) on days 1 and 3 and used starting on day 26. The animals are anesthetized with pentobarbital sodium (50 mg/kg, i.p.), bilateral vagotomy is performed, and the jugular vein is cannulated for injection of drugs and the carotid artery for monitoring blood pressure. The trachea is cannulated for artificial ventilation by miniature Starling pump and for indirect measurement of respiratory volume changes as described, infra. Succinylcholine (2 mg/kg, i.v.) is administered to arrest spontaneous respiration. […]
Respiratory volume changes are determined by a calibrated piston whose travel is recorded, via a linear transducer, on a Beckman Dynograph recorder. Maximal bronchoconstrictor volume is determined by clamping off the trachea at the end of the experiment. Overflow volumes at minutes 1, 3 and 5 are obtained from the recorded charts.
Area under the volume overflow curve (AUC) is estimated, using the overflow values at 1, 3 and 5 minutes, and expressed as a percentage of the maximal overflow AUC (equation 1): [formula] […]

[5] = test system: TxB2 synthesis (cyclooxygenase); assay: Inhibition of synthesis of cyclooxygenase oxidation product TxB2 (rat polymorphonuclear leukocytes); assay type: cell-based; settings: Leukocyte, rat PMN
Procedure: as §1
The procedure of Example 17 is also employed for the determination of the ability of the compounds of the invention to inhibit the synthesis of the arachidonic acid cyclooxygenase oxidation product TxB2.
In this assay, the procedure of Example 17 is carried out as described. However, in order to determine cyclooxygenase activity, the samples are cochromatographed with authentic reference TxB2 in the solvent system ethyl acetate:formic acid (80:1) and the upper phase of ethyl acetate:isoctane:acetic acid:water (110:50:20:100). After chromatography, the areas associated with TxB2 standard are identified by autoradiography, cut out and quantitated by liquid scintillation techniques.
The results are calculated as in Example 12 and presented below: […]

[6] = biological target: T1, LTD4 (contraction of isolated guinea pig trachea) (Cavia porcellus, UniProt Q2NNR5); settings: literature value, reference (1); cited from earlier work
T1 construct: The tracheal ring is suspended between a glass hook and a force displacement transducer in a 10 ml organ bath; from tissue; host or cells: isolated tracheal rings of male Hartley guinea pigs
T1 sequence (Q2NNR5 1-340): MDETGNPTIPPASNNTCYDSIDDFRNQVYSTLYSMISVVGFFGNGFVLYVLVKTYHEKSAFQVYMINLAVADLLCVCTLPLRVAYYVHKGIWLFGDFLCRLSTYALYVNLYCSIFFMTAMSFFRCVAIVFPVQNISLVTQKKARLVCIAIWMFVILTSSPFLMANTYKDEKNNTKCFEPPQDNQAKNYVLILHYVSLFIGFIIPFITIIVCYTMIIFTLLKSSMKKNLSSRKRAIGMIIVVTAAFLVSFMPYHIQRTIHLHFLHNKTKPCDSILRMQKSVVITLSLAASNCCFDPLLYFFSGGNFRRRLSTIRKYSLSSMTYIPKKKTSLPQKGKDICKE

[7] = biological target: T1, LTD4 (contraction of isolated guinea pig trachea); assay: Isolated guinea pig trachea assay, LTD4 antagonist activity; assay type: cell-based
Procedure: The compounds of the invention are tested in the isolated guinea pig trachea assay to assess their LTD4 antagonist activity. Male Hartley guinea pigs (350-400 g) are euthanized by a blow to the head, the neck is opened and the trachea removed. The trachea is maintained in aerated physiological salt solution, cleared of connective tissue and fat and cut into rings approximately 2 mm in width (usually containing two cartilaginous segments per ring). Two pieces of silk suture are then passed through the lumen of the tracheal ring and are tied around the cartilage, one on each side of the trachealis muscle. The tracheal ring is suspended between a glass hook and a force displacement transducer in a 10 ml organ bath for measurement of isometric tension. Tissues are maintained at 37° C. in aerated (95% O2 /5% CO2) physiological salt solution of the following composition: […] The tracheal rings are maintained at 2 g resting tension and equilibrated for 45 minutes (with frequent washing and readjustment of resting tension). The tracheal rings are first contracted by the addition of carbachol (3×10^-6 M), to determine tissue responsiveness and establish a reference contraction. On attainment of a stable level of contraction (approximately 30 minutes), the tissues are washed several times until baseline tension has been restored and then re-equilibrated for 30 minutes. The tissues are then incubated for 45 minutes with a test antagonist (either 1×10^-6 M or 1×10^-5 M) or 10 μl of an appropriate solvent control (control, non-treated). One tissue in each group serves as the control. Twenty minutes prior to the construction of the LTD4 cumulative concentration-response curve, L-[…]×10^-2 M final bath concentration) is added to inhibit bioconversion of LTD4 to LTE4. Only one LTD4 concentration-response curve is constructed in each tissue. All responses to LTD4 are calculated as a percentage of the reference contraction to carbachol. LTD4 antagonist activity is determined by comparison of the concentration response curves of LTD4 in the presence and absence of antagonist. Assessment of the relative rightward shift of the antagonist treated curve relative to the solvent (control) treated tissue is calculated as a concentration ratio (Eq. A) and used in subsequent calculations to derive an antagonist pKB value (Eqs B&C). In the event that the maximum response to LTD4 is depressed, the EC50 for that particular curve is determined, an "apparent" pKB reported, and the compound reported as "not-competitive."

[8] = A23187 10 μM, read-out: 50% Inhibitory Concentration (IC50)
[9] = reference compounds, LTD4 concentration-response curve, read-out: pKB (converted)

O=S(=O)(Nc1cccc(OCc2csc(-c3ccccc3)n2)c1)C(F)(F)F [Example 3, 1,1,1-Trifluoro-N-[3-[(2-phenyl-4-thiazolyl)methoxy]phenyl]methanesulfonamide]
IC50 [1, 8]: 3.2 µM
inhibition in vivo at 50 mg/kg [2]: 51%
ED50 ([3]; Cavia porcellus, intragastrically, read-out: ED50): 2.4 mg/kg
ED50 ([3]; intragastrically): 3.0 mg/kg
% Inhibition [4]: 10%
IC50 [5, 8]: 1700 nM

O=S(=O)(Nc1cccc(OCc2csc(-c3ccc(F)cc3)n2)c1)C(F)(F)F [Example 9B, 1,1,1-Trifluoro-N-[3-[[2-(4-fluorophenyl)-4-thiazolyl]methoxy]phenyl]methanesulfonamide]
inhibition at 10 µM ([1]; 10 μM): 64%
inhibition in vivo at 50 mg/kg [2]: 55%
inhibition in vivo at 25 mg/kg ([3]; Cavia porcellus, intraduodenal, 25 mg/kg, intraduodenally): 100%
inhibition in vivo at 10 mg/kg ([3]; Cavia porcellus, po, 10 mg/kg, intragastrically): 92%
inhibition at 10 µM ([5]; 10 μM): 32%

CCCc1c(OCCCCc2nn[nH]n2)ccc(C(C)=O)c1O [LY-171,883, reference compound]
pKB (Reference) [6]: 6.65
Kb [7, 9]: 126 nM

O=S(=O)(Nc1cccc(OCc2ccc3ccccc3n2)c1)C(F)(F)F [Wy-48,252, reference compound]
pKB (Reference) [6]: 7.70
Kb ([7]; antagonist concentration 1 × 10^-6 M, read-out: pKB ± S.E. (converted)): 83.2 nM
Kb [7, 9]: 36.3 nM
